Patent US20250034216A1, “STEREOSELECTIVE COVALENT LIGANDS FOR ONCOGENIC AND IMMUNOLOGICAL PROTEINS” (The Scripps Research Institute, priority 2021, published 2025)

Key:
[1] = test system: p27; experiment: anti-p27 western blot; type: cell-based, human; settings: 22Rv1 cells, 24 h
[2] = test system: SF3B1 interacting proteins; experiment: SF3B1 co-immunoprecipitation-MS; type: cell-based, human; settings: HEK293T cells, 5 μM WX-02-23 or 10 nM pladienolide B, 3 h
Description: HEK293T cells were treated in situ with DMSO, 5 μM of WX-02-23/WX-02-43, or 10 nM pladienolide B for 3 hours. Cells were harvested, washed with ice-cold PBS, and lysed in ColP lysis buffer (0.5% NP-40, 100 mM EPPS, 150 mM NaCl, cOmplete protease inhibitor). Lysates centrifuged at 16,000 g for 3 minutes, normalized to 2.0 mg/mL and 500 μL of each lysate was aliquoted to a clean eppendorf tube.
Lysates were incubated with 5 μL of anti-IgG or anti-SF3B1 (CST) for 2 hours at 4 C, followed by 1 hour with 25 μL of protein-A agarose beads. Bead were washed twice with ColP lysis buffer, and then twice with 100 mM EPPS, followed by elution with 8 M urea in EPPS at 65 C for 10 min. […] Samples were then trypsinized at 37 C overnight (2 ug of trypsin per sample), then TMT labeled and desalted.

[3] = biological target: T1, SF3B1 (~150 kDa protein) (Homo sapiens, UniProt O75533+Q7RTV0); experiment: Gel-based ABPP for SF3B1 cysteine engagement; type: binding; settings: 22Rv1 cells, 24 h pre-treatment (1 μM WX-02-23/WX-02-43, 10 nM pladienolide B)
T1 construct: Cysteine engagement data from 22Rv1 cells treated; endogenous in cells; host or cells: 22Rv1
Description: 22Rv1 cells were treated with indicated compounds for 24 h, chased with click probe for 1 h in situ, harvested and lysed in PBS with protease inhibitors (cOmplete), and then normalized to 2.0 mg/mL. Reagents for the CuAAC click reaction were pre-mixed prior to addition to the samples (3 μL of click reaction mix for 25 μL of lysate). After 1 hour of click labeling, 4×SDS running buffer was added to samples, which were then analyzed by SDS-PAGE.

T1 sequence (O75533 whole entry): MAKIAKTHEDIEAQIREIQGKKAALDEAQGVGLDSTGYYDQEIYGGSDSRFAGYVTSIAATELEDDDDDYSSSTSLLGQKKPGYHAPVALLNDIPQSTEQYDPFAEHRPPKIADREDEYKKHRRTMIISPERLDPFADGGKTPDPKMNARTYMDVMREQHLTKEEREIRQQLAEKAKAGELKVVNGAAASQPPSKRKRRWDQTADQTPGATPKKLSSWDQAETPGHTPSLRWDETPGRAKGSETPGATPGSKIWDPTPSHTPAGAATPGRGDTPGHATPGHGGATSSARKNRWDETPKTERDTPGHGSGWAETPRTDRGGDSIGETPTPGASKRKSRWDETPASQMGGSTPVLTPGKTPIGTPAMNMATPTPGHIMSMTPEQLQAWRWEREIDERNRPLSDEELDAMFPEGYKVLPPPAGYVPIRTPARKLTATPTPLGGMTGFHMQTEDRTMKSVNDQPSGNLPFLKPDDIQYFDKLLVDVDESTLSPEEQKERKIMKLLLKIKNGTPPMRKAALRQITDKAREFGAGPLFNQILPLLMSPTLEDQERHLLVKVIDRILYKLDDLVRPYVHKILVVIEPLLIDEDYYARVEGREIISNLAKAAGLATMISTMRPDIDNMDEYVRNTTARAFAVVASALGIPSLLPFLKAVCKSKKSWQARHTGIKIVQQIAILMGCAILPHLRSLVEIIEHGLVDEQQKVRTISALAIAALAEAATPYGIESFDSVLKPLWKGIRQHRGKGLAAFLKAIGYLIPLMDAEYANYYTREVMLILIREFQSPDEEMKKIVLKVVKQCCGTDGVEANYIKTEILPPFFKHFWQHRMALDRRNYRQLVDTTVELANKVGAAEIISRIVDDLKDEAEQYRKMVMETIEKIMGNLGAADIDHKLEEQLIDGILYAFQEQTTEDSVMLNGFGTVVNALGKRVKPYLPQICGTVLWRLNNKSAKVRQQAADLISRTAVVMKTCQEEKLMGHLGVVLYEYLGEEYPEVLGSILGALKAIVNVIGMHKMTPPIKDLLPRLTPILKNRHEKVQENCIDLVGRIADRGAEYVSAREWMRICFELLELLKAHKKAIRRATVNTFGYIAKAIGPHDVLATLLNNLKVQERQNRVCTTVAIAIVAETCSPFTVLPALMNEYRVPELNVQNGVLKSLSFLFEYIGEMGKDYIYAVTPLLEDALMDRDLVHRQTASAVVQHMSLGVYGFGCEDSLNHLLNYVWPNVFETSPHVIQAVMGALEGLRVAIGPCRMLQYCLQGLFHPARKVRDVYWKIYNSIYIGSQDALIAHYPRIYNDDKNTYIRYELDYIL
T1 sequence (Q7RTV0 whole entry): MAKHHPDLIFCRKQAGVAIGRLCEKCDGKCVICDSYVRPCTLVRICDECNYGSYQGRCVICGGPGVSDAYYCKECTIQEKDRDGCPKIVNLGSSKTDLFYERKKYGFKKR
T1 sequence (Q15393 whole entry partner): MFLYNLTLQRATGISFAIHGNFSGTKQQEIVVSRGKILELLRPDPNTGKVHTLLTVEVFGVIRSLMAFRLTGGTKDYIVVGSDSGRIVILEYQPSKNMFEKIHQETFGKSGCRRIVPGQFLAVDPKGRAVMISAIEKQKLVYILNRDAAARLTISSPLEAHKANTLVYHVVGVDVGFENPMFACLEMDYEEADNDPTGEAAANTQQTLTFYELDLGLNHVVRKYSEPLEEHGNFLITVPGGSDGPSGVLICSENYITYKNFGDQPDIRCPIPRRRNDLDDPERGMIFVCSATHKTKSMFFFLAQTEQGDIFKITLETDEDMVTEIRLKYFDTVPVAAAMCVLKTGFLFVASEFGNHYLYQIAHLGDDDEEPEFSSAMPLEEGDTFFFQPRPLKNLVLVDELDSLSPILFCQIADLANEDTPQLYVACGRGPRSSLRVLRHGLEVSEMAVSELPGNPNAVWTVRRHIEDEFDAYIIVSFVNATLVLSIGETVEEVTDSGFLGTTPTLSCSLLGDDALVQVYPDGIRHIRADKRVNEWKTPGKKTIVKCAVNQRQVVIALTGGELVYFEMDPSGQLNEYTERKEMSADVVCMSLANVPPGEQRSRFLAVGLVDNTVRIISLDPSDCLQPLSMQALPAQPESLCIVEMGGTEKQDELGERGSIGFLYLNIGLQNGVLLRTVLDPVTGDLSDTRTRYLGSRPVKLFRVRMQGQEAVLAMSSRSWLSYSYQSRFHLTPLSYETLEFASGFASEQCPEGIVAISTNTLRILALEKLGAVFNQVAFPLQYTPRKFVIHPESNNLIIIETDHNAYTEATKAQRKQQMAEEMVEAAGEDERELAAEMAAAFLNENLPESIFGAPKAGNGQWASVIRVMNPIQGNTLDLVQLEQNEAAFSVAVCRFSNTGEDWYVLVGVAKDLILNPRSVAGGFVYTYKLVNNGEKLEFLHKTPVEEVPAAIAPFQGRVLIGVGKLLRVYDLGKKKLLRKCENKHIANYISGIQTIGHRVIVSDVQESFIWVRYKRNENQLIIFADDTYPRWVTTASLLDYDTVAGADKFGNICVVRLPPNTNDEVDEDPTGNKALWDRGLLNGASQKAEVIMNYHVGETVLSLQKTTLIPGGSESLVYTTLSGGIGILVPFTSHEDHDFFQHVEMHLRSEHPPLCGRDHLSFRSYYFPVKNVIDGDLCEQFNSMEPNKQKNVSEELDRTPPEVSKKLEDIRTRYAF
T1 sequence (Q9BWJ5 whole entry partner): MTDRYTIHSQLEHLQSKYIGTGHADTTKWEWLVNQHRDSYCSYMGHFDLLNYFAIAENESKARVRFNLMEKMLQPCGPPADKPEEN

blockade of WX-01-10 labeling of the 150 kDa protein [3]: blocked
Compound: C=CC(=O)N1[C@H](c2ccc3c(c2)OCO3)c2[nH]c3ccccc3c2C[C@H]1C(=O)N1CCOCC1 [WX-02-23, 1-((1R,3S)-1-(benzo[d][1,3]dioxol-S-yl)-3-(morpholine-4-carbonyl)-1,3,4,9-tetrahydro-2H-pyrido [3,4-b]indol-2-yl)prop-2-en-1-one]
p27 expression [1]: induced expression of p27
SF3B1 interactions (DDX42 association) [2]: much greater extent
